#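 Grown in 96-well plates, cells were treated for 48 hours with each compound at five concentrations. Insufficient inhibition: endpoint recorded as highest concentration tested. GI50 is the concentration that inhibits growth by half.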 Active and inactive are the calls of the source. Cut-off read from the data, not from the text of the source: active = GI50 up to about 1.1 µM and inactive = higher.
# Tests used:
# Test in all cases: inhibition of tumour cell growth, NCI panel, 48 h
# [1] = system: A549
# [2] = system: NCI-H460
# [3] = system: RXF 393
# [4] = system: OVCAR-4
# [5] = system: A498
# [6] = system: 786-0
# [7] = system: Malme-3M
# [8] = system: HOP-62
# [9] = system: NCI-H522
# [10] = system: HT-29
# [11] = system: LOX IMVI
# [12] = system: MOLT-4
# [13] = system: SK-MEL-28
# [14] = system: UACC-257
# [15] = system: SK-MEL-2
# [16] = system: HCT-15
# [17] = system: KM12
# [18] = system: NCI-H226
SMILES,GI50 [1],GI50 [2],GI50 [3],GI50 [4],GI50 [5],GI50 [6],GI50 [7],GI50 [8],GI50 [9],GI50 [10],GI50 [11],GI50 [12],GI50 [13],GI50 [14],GI50 [15],GI50 [16] [µM],GI50 [17],GI50 [18]
CC(=O)OCC1OC(n2c(=O)[nH]c(=O)c3nn[nH]c32)C(OC(C)=O)C(OC(C)=O)C1OC(C)=O (configuration not stated),> 100 µM (inactive),> 100 µM (inactive),> 100 µM (inactive),66.5 µM (inactive),> 100 µM (inactive),> 100 µM (inactive),> 100 µM (inactive),> 100 µM (inactive),> 100 µM (inactive),> 100 µM (inactive),> 100 µM (inactive),> 100 µM (inactive),> 100 µM (inactive),> 100 µM (inactive),> 100 µM (inactive),> 100,,
O=C(O)C12C3CCC(C3)C1(C(=O)O)C1CCC2C1 (configuration not stated),> 100 µM (inactive),81.3 µM (inactive),34.4 µM (inactive),,> 100 µM (inactive),> 100 µM (inactive),> 100 µM (inactive),> 100 µM (inactive),14.7 µM (inactive),> 100 µM (inactive),23.7 µM (inactive),> 100 µM (inactive),> 100 µM (inactive),> 100 µM (inactive),> 100 µM (inactive),39.8,> 100 µM (inactive),> 100 µM (inactive)
CNC(=O)NCNC(=O)NC,> 100 µM (inactive),> 100 µM (inactive),,> 100 µM (inactive),> 100 µM (inactive),> 100 µM (inactive),> 100 µM (inactive),> 100 µM (inactive),,> 100 µM (inactive),> 100 µM (inactive),> 100 µM (inactive),> 100 µM (inactive),> 100 µM (inactive),> 100 µM (inactive),> 100,> 100 µM (inactive),
COc1cc2ccnc3c2c(c1OC)CC1CC(O)C(OC)CC31 (configuration not stated),61.8 µM (inactive),35.6 µM (inactive),,> 100 µM (inactive),,33.5 µM (inactive),> 100 µM (inactive),26.6 µM (inactive),60.1 µM (inactive),46.5 µM (inactive),31.7 µM (inactive),33.3 µM (inactive),22.7 µM (inactive),37.1 µM (inactive),> 100 µM (inactive),63.8,40.9 µM (inactive),96.4 µM (inactive)
COC(=O)c1cc2c3c(ccc2[nH]1)N(C(=O)c1cc2c4c(ccc2[nH]1)N(C(=O)c1cc2c5c(ccc2[nH]1)N(C(N)=O)CC5)CC4)CC3,3 µM (inactive),3.24 µM (inactive),2.17 µM (inactive),3.55 µM (inactive),1.29 µM (inactive),3.05 µM (inactive),1.24 µM (inactive),2.29 µM (inactive),1.61 µM (inactive),6.58 µM (inactive),1.88 µM (inactive),> 23 µM (inactive),,> 22.6 µM (inactive),3.18 µM (inactive),12,6.82 µM (inactive),1.71 µM (inactive)
COc1cc(C2(C)SCCCS2)cc(OC)c1OC,> 100 µM (inactive),> 100 µM (inactive),,> 100 µM (inactive),> 100 µM (inactive),> 100 µM (inactive),> 100 µM (inactive),> 100 µM (inactive),> 100 µM (inactive),> 100 µM (inactive),> 100 µM (inactive),> 100 µM (inactive),> 100 µM (inactive),> 100 µM (inactive),> 100 µM (inactive),> 100,> 100 µM (inactive),> 100 µM (inactive)
O=C1C2c3[nH]c4ccccc4c3[C@@H]3CCCCC3C2C(=O)N1c1ccccc1 (some centres not stated),28.8 µM (inactive),17.8 µM (inactive),16.7 µM (inactive),20.5 µM (inactive),28.6 µM (inactive),18.9 µM (inactive),20.6 µM (inactive),,,19.7 µM (inactive),15.8 µM (inactive),19 µM (inactive),18.2 µM (inactive),,,25.7,19.2 µM (inactive),21 µM (inactive)
CNC(C)Cc1ccccc1O (configuration not stated),> 100 µM (inactive),> 100 µM (inactive),> 100 µM (inactive),> 100 µM (inactive),> 100 µM (inactive),> 100 µM (inactive),> 100 µM (inactive),> 100 µM (inactive),> 100 µM (inactive),> 100 µM (inactive),> 100 µM (inactive),> 100 µM (inactive),> 100 µM (inactive),> 100 µM (inactive),> 100 µM (inactive),8.71,> 100 µM (inactive),> 100 µM (inactive)
ClC(/N=N/c1ccccc1)=N/Nc1ccccc1,> 100 µM (inactive),> 100 µM (inactive),> 100 µM (inactive),> 100 µM (inactive),> 100 µM (inactive),> 100 µM (inactive),> 100 µM (inactive),> 100 µM (inactive),61.9 µM (inactive),> 100 µM (inactive),58.5 µM (inactive),> 100 µM (inactive),> 100 µM (inactive),> 100 µM (inactive),> 100 µM (inactive),,60.7 µM (inactive),> 100 µM (inactive)

# — ChEMBL document CHEMBL1201862, “PubChem BioAssay data set” (2004)
